# Results published in ChEMBL document CHEMBL1201862, “PubChem BioAssay data set” (2004).
#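 The compound was tested at five concentrations on cells cultured in 96-well plates, with a 48-hour exposure period. The concentration for 50% growth inhibition is given as GI50.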 The source made the active and inactive calls. Rule as the data show it: active = GI50 up to about 1.1 µM and inactive = higher.
# Experiments:
# Assay in all cases: NCI tumour cell line growth inhibition, 48 h
# [1] = test system: LOX IMVI
# [2] = test system: RXF 393
# [3] = test system: UACC-62
# [4] = test system: UACC-257
# [5] = test system: KM12
# [6] = test system: NCI-H460
# [7] = test system: A498
# [8] = test system: CCRF-CEM
# [9] = test system: HOP-62
# [10] = test system: PC-3
# [11] = test system: HT-29
# [12] = test system: SF-539
# [13] = test system: Hs-578T
# [14] = test system: SNB-19
# [15] = test system: MDA-MB-435
# [16] = test system: OVCAR-8
# [17] = test system: EKVX
# [18] = test system: ACHN
# [19] = test system: CAKI-1
# [20] = test system: HCC 2998
# [21] = test system: NCI-H226
# [22] = test system: NCI/ADR-RES
# [23] = test system: SF-268
# [24] = test system: NCI-H522
# [25] = test system: OVCAR-4
# [26] = test system: T47D
# [27] = test system: MCF7
# [28] = test system: MDA-N
# [29] = test system: DU-145
# [30] = test system: Malme-3M
# [31] = test system: SK-MEL-5
# [32] = test system: A549
# [33] = test system: SK-OV-3
# [34] = test system: SK-MEL-2
# [35] = test system: NCI-H23
# [36] = test system: MOLT-4
# [37] = test system: MDA-MB-231
# [38] = test system: SK-MEL-28
# [39] = test system: TK-10
# [40] = test system: HCT-15
# [41] = test system: OVCAR-5
# [42] = test system: U-251
# [43] = test system: BT-549
# [44] = test system: UO-31
# [45] = test system: HL-60
# [46] = test system: SF-295
# [47] = test system: HCT-116
# [48] = test system: SW-620
# [49] = test system: IGROV-1
# [50] = test system: M14
# [51] = test system: SN12C
# [52] = test system: HOP-92
# [53] = test system: OVCAR-3
# [54] = test system: RPMI-8226
# [55] = test system: K562
# [56] = test system: COLO 205
# [57] = test system: 786-0
# [58] = test system: SR
# [59] = test system: SNB-75
compound,measurement,setting,value
CCCC(c1cc(C(C)(C)C)c(O)cc1C)c1cc(C(C)(C)C)c(O)cc1C,GI50,[1],1.87 µM (inactive)
same,GI50,[2],1.99 µM (inactive)
same,GI50,[3],2.09 µM (inactive)
same,GI50,[4],2.31 µM (inactive)
same,GI50,[5],3.32 µM (inactive)
same,GI50,[6],1.95 µM (inactive)
same,GI50,[7],2.05 µM (inactive)
same,GI50,[8],2.71 µM (inactive)
same,GI50,[9],3.05 µM (inactive)
same,GI50,[10],3.29 µM (inactive)
same,GI50,[11],6.65 µM (inactive)
same,GI50,[12],2.39 µM (inactive)
same,GI50,[13],2.79 µM (inactive)
same,GI50,[14],4.99 µM (inactive)
same,GI50,[15],2.59 µM (inactive)
same,GI50,[16],4.03 µM (inactive)
same,GI50,[17],2.88 µM (inactive)
same,GI50,[18],2.67 µM (inactive)
same,GI50,[19],4.3 µM (inactive)
same,GI50,[20],1.75 µM (inactive)
same,GI50,[21],2.3 µM (inactive)
same,GI50,[22],3.4 µM (inactive)
same,GI50,[23],4.4 µM (inactive)
same,GI50,[24],2.33 µM (inactive)
same,GI50,[25],5.13 µM (inactive)
same,GI50,[26],2.56 µM (inactive)
same,GI50,[27],2.06 µM (inactive)
same,GI50,[28],1.87 µM (inactive)
same,GI50,[29],4.05 µM (inactive)
same,GI50,[30],3.05 µM (inactive)
same,GI50,[31],1.77 µM (inactive)
same,GI50,[32],2.99 µM (inactive)
same,GI50,[33],3.65 µM (inactive)
same,GI50,[34],2.6 µM (inactive)
same,GI50,[35],2.65 µM (inactive)
same,GI50,[36],2.16 µM (inactive)
same,GI50,[37],3.56 µM (inactive)
same,GI50,[38],3.48 µM (inactive)
same,GI50,[39],3.2 µM (inactive)
same,GI50,[40],3.35 µM
same,GI50,[41],2.13 µM (inactive)
same,GI50,[42],2.65 µM (inactive)
same,GI50,[43],9.79 µM (inactive)
same,GI50,[44],3.33 µM (inactive)
same,GI50,[45],2.27 µM (inactive)
same,GI50,[46],2.4 µM (inactive)
same,GI50,[47],1.91 µM (inactive)
same,GI50,[48],3.23 µM (inactive)
same,GI50,[49],4.04 µM (inactive)
same,GI50,[50],2.09 µM (inactive)
same,GI50,[51],1.94 µM (inactive)
same,GI50,[52],8.41 µM (inactive)
same,GI50,[53],1.81 µM (inactive)
same,GI50,[54],2.24 µM (inactive)
same,GI50,[55],2.23 µM (inactive)
same,GI50,[56],2.33 µM (inactive)
same,GI50,[57],2.31 µM (inactive)
same,GI50,[58],2.26 µM (inactive)
COC1/C=C\OC2(C)Oc3c(C)c(O)c4c(O)c(c(CN(C)C)c(O)c4c3C2=O)NC(=O)/C(C)=C\C=C/C(C)C(O)C(C)C(O)C(C)C(OC(C)=O)C1C (stereo unspecified),GI50,[1],17.6 µM (inactive)
same,GI50,[2],37.8 µM (inactive)
same,GI50,[3],18.3 µM (inactive)
same,GI50,[4],22.4 µM (inactive)
same,GI50,[5],33.7 µM (inactive)
same,GI50,[6],32.1 µM (inactive)
same,GI50,[7],> 100 µM (inactive)
same,GI50,[9],55.1 µM (inactive)
same,GI50,[10],23 µM (inactive)
same,GI50,[11],20.6 µM (inactive)
same,GI50,[12],17.5 µM (inactive)
same,GI50,[13],30.7 µM (inactive)
same,GI50,[14],42.9 µM (inactive)
same,GI50,[15],26.4 µM (inactive)
same,GI50,[16],30.6 µM (inactive)
same,GI50,[17],12.5 µM (inactive)
same,GI50,[18],61.9 µM (inactive)
same,GI50,[19],57.1 µM (inactive)
same,GI50,[20],20.5 µM (inactive)
same,GI50,[21],> 100 µM (inactive)
same,GI50,[22],> 100 µM (inactive)
same,GI50,[23],33.3 µM (inactive)
same,GI50,[24],16.2 µM (inactive)
same,GI50,[25],36.6 µM (inactive)
same,GI50,[26],29 µM (inactive)
same,GI50,[27],17.9 µM (inactive)
same,GI50,[28],30.6 µM (inactive)
same,GI50,[29],32.3 µM (inactive)
same,GI50,[30],19.3 µM (inactive)
same,GI50,[31],18.5 µM (inactive)
same,GI50,[32],27.4 µM (inactive)
same,GI50,[33],> 100 µM (inactive)
same,GI50,[34],18.7 µM (inactive)
same,GI50,[35],16 µM (inactive)
same,GI50,[36],15.5 µM (inactive)
same,GI50,[37],28.8 µM (inactive)
same,GI50,[38],31.4 µM (inactive)
same,GI50,[39],35.3 µM (inactive)
same,GI50,[40],44.2 µM
same,GI50,[41],> 100 µM (inactive)
same,GI50,[42],19.7 µM (inactive)
same,GI50,[43],31.2 µM (inactive)
same,GI50,[44],39 µM (inactive)
same,GI50,[45],18.5 µM (inactive)
same,GI50,[46],> 100 µM (inactive)
same,GI50,[47],18.3 µM (inactive)
same,GI50,[48],12.2 µM (inactive)
same,GI50,[49],33.7 µM (inactive)
same,GI50,[59],39.3 µM (inactive)
same,GI50,[50],19.4 µM (inactive)
same,GI50,[51],25.9 µM (inactive)
same,GI50,[52],45 µM (inactive)
same,GI50,[53],15.4 µM (inactive)
same,GI50,[54],6.5 µM (inactive)
same,GI50,[55],22.6 µM (inactive)
same,GI50,[56],17.5 µM (inactive)
same,GI50,[57],27.4 µM (inactive)
same,GI50,[58],15.7 µM (inactive)
